Source: PubChem BioAssay (NCI)
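Following 48 hours of exposure in 96-well plates, responses at five concentrations were used to interpolate endpoints linearly. GI50: concentration for 50% inhibition of growth. TGI is the concentration that stops growth completely.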

Columns and labels:
Test in all cases: DTP human tumour cell line panel, 48 h
[1] = test system: MCF7 breast
[2] = test system: UACC-257 melanoma
[3] = test system: UO-31 renal
[4] = test system: HCT-15 colon
[5] = test system: SK-MEL-2 melanoma
[6] = test system: HCT-116 colon
[7] = test system: PC-3 prostate
[8] = test system: MDA-N
[9] = test system: COLO 205 colon
[10] = test system: NCI/ADR-RES ovarian
[11] = test system: RPMI-8226 leukemia
[12] = test system: SF-295 CNS
[13] = test system: CAKI-1 renal
[14] = test system: NCI-H460 lung
[15] = test system: OVCAR-5 ovarian
[16] = test system: T-47D breast
[17] = test system: HT29 colon
[18] = test system: 786-0 renal
[19] = test system: OVCAR-3 ovarian
[20] = test system: DU-145 prostate
[21] = test system: U251 CNS
[22] = test system: NCI-H23 lung
[23] = test system: SNB-75 CNS
[24] = test system: M14 melanoma
[25] = test system: CCRF-CEM leukemia
[26] = test system: SF-539 CNS
[27] = test system: SNB-19 CNS
[28] = test system: MDA-MB-435
[29] = test system: ACHN renal
[30] = test system: RXF 393 renal
[31] = test system: TK-10 renal
[32] = test system: SW-620 colon
[33] = test system: SK-MEL-28 melanoma
[34] = test system: SK-OV-3 ovarian
[35] = test system: MOLT-4 leukemia
[36] = test system: SF-268 CNS
[37] = test system: BT-549 breast
[38] = test system: EKVX NSCLC
[39] = test system: HCC-2998 colon
[40] = test system: HOP-62 NSCLC
[41] = test system: OVCAR-4 ovarian
[42] = test system: KM12 colon
[43] = test system: SR leukemia
[44] = test system: OVCAR-8 ovarian
[45] = test system: SK-MEL-5 melanoma
[46] = test system: K-562 leukemia
[47] = test system: SN12C renal
[48] = test system: MDA-MB-231 breast
[49] = test system: NCI-H522 lung
[50] = test system: LOX IMVI melanoma
[51] = test system: IGROV1 ovarian
[52] = test system: UACC-62 melanoma
[53] = test system: A549 NSCLC
[54] = test system: MALME-3M melanoma
[55] = test system: A498 renal
[56] = test system: NCI-H226 lung
[57] = test system: HOP-92 NSCLC

COc1ccc(N[C@H](CSc2ccc(C)cc2)c2ccc(F)cc2)cc1
TGI [1]: > 100 µM | TGI [2]: > 100 µM | TGI [3]: > 100 µM | TGI [4]: > 100 µM | TGI [5]: > 100 µM | TGI [6]: > 100 µM | TGI [7]: > 100 µM | TGI [8]: > 100 µM | TGI [9]: > 100 µM | TGI [10]: > 100 µM | TGI [11]: > 100 µM | TGI [12]: > 100 µM | TGI [13]: > 100 µM | TGI [14]: > 100 µM | TGI [15]: > 100 µM | TGI [16]: > 100 µM | TGI [17]: > 100 µM | TGI [18]: > 100 µM | TGI [19]: > 100 µM | TGI [20]: > 100 µM | TGI [21]: > 100 µM | TGI [22]: > 100 µM | TGI [23]: > 100 µM | TGI [24]: > 100 µM | TGI [25]: > 100 µM | TGI [26]: > 100 µM | TGI [27]: > 100 µM | TGI [28]: > 100 µM | TGI [29]: > 100 µM | TGI [30]: > 100 µM | TGI [31]: > 100 µM | TGI [32]: > 100 µM | TGI [33]: > 100 µM | TGI [34]: > 100 µM | TGI [35]: > 100 µM | TGI [36]: > 100 µM | TGI [37]: > 100 µM | TGI [38]: > 100 µM | TGI [39]: > 100 µM | TGI [40]: > 100 µM | TGI [41]: > 100 µM | TGI [42]: > 100 µM | TGI [43]: > 100 µM | TGI [44]: > 100 µM | TGI [45]: > 100 µM | TGI [46]: > 100 µM | TGI [47]: > 100 µM | TGI [48]: > 100 µM | TGI [49]: > 100 µM | TGI [50]: > 100 µM | TGI [51]: > 100 µM | TGI [52]: > 100 µM | TGI [53]: > 100 µM

N#Cc1c(-c2ccccc2)/c(=C\Nc2ccc(Cl)cc2)c(=O)n2c1nc1ccccc12
TGI [1]: > 100 µM | TGI [2]: > 100 µM | TGI [3]: > 100 µM | TGI [4]: > 100 µM | TGI [5]: > 100 µM | TGI [6]: 19.6 µM | TGI [7]: > 100 µM | TGI [8]: > 100 µM | TGI [9]: > 100 µM | TGI [10]: > 100 µM | TGI [11]: 45.9 µM | TGI [12]: > 100 µM | TGI [13]: 94.4 µM | TGI [14]: > 100 µM | TGI [15]: > 100 µM | TGI [54]: > 100 µM | TGI [16]: > 100 µM | TGI [18]: > 100 µM | TGI [19]: > 100 µM | TGI [21]: > 100 µM | TGI [22]: > 100 µM | TGI [23]: > 100 µM | TGI [24]: > 100 µM | TGI [25]: 84.9 µM | TGI [26]: > 100 µM | TGI [27]: > 100 µM | TGI [28]: > 100 µM | TGI [29]: > 100 µM | TGI [30]: > 100 µM | TGI [31]: > 100 µM | TGI [32]: > 100 µM | TGI [33]: > 100 µM | TGI [34]: > 100 µM | TGI [36]: > 100 µM | TGI [37]: > 100 µM | TGI [55]: > 100 µM | TGI [39]: > 100 µM | TGI [40]: > 100 µM | TGI [41]: > 100 µM | TGI [42]: > 100 µM | TGI [44]: > 100 µM | TGI [45]: > 100 µM | TGI [47]: > 100 µM | TGI [56]: > 100 µM | TGI [48]: > 100 µM | TGI [49]: > 100 µM | TGI [50]: > 100 µM | TGI [51]: > 100 µM | TGI [53]: > 100 µM

CCCCCCCCCC[C@H](O)[C@H]1CC[C@H]([C@H]2CC[C@H]([C@H](O)CC[C@H](O)CCCCCCC[C@@H](O)CC3=C[C@H](C)OC3=O)O2)O1
GI50 [1]: 3.98 µM | TGI [1]: > 100 µM | TGI [2]: > 100 µM | GI50 [3]: 23.6 µM | TGI [3]: > 100 µM | TGI [4]: > 100 µM | TGI [5]: > 100 µM | TGI [6]: > 100 µM | TGI [7]: > 100 µM | GI50 [8]: 6.36 µM | TGI [8]: > 100 µM | TGI [9]: 78.5 µM | GI50 [10]: 16.5 µM | TGI [10]: > 100 µM | TGI [11]: 10.5 µM | TGI [12]: > 100 µM | TGI [13]: > 100 µM | TGI [14]: > 100 µM | GI50 [15]: > 100 µM | TGI [15]: > 100 µM | TGI [54]: > 100 µM | GI50 [16]: 2.17 µM | TGI [16]: > 100 µM | TGI [18]: > 100 µM | TGI [19]: > 100 µM | GI50 [21]: > 100 µM | TGI [21]: > 100 µM | TGI [22]: > 100 µM | TGI [23]: 79.7 µM | TGI [24]: > 100 µM | GI50 [25]: 3.12 µM | TGI [25]: > 100 µM | TGI [26]: > 100 µM | TGI [27]: > 100 µM | GI50 [28]: 40.3 µM | TGI [28]: > 100 µM | GI50 [29]: 10 µM | TGI [29]: > 100 µM | TGI [30]: 88 µM | TGI [31]: > 100 µM | GI50 [32]: > 100 µM | TGI [32]: > 100 µM | GI50 [33]: > 100 µM | TGI [33]: > 100 µM | GI50 [35]: 19.9 µM | TGI [35]: 80.1 µM | GI50 [36]: > 100 µM | TGI [36]: > 100 µM | TGI [37]: > 100 µM | TGI [38]: > 100 µM | GI50 [55]: 89.4 µM | TGI [55]: > 100 µM | TGI [39]: > 100 µM | TGI [41]: > 100 µM | GI50 [42]: 38.1 µM | TGI [42]: > 100 µM | TGI [44]: > 100 µM | TGI [45]: 3.93 µM | TGI [46]: 67.8 µM | TGI [47]: > 100 µM | GI50 [56]: > 100 µM | TGI [56]: > 100 µM | GI50 [48]: > 100 µM | TGI [48]: > 100 µM | TGI [49]: > 100 µM | GI50 [50]: 1.26 µM | TGI [50]: > 100 µM | TGI [51]: > 100 µM | GI50 [57]: > 100 µM | TGI [57]: > 100 µM | GI50 [53]: 7.18 µM | TGI [53]: > 100 µM
